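Each compound was tested at five concentrations against cells in 96-well plates for 48 hours. The concentration for full growth arrest is given as TGI.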
system: NCI-H23 lung; assay: NCI anticancer screen, dose series, 48 h

SMILES	TGI [µM]
CCOC(=O)/C(=C/c1ccco1)P(=O)(OCC)OCC	> 100
O=C(Nc1ccc(S(=O)(=O)N[C@@H](C(=O)O)c2ccccc2)cc1)c1ccc(F)cc1	> 100
CC(C)(C)c1nc2c(o1)C(=Nc1ccc(F)cc1)c1ccccc1C2=O	8.98
c1ccc2c(c1)N=C(c1cccc3ccccc13)CC(c1cccc3ccccc13)S2 (centres undefined)	12.5
NS(=O)(=O)c1ccc(NC(=O)c2cccc3c(=O)c4ccccc4[nH]c23)cc1	> 100
COc1ccc(C2=NC(C)(C)CO2)cc1	> 100

system: NCI-H226 lung; assay: NCI anticancer screen, dose series, 48 h

SMILES	TGI [µM]
CCOC(=O)/C(=C/c1ccco1)P(=O)(OCC)OCC	> 100
CC(C)(C)c1nc2c(o1)C(=Nc1ccc(F)cc1)c1ccccc1C2=O	34.3
c1ccc2c(c1)N=C(c1cccc3ccccc13)CC(c1cccc3ccccc13)S2 (centres undefined)	24.6
NS(=O)(=O)c1ccc(NC(=O)c2cccc3c(=O)c4ccccc4[nH]c23)cc1	> 100

system: COLO 205 colon; assay: NCI anticancer screen, dose series, 48 h

SMILES	TGI [µM]
CCOC(=O)/C(=C/c1ccco1)P(=O)(OCC)OCC	> 100
O=C(Nc1ccc(S(=O)(=O)N[C@@H](C(=O)O)c2ccccc2)cc1)c1ccc(F)cc1	> 100
CC(C)(C)c1nc2c(o1)C(=Nc1ccc(F)cc1)c1ccccc1C2=O	30.7
c1ccc2c(c1)N=C(c1cccc3ccccc13)CC(c1cccc3ccccc13)S2 (centres undefined)	28.3
NS(=O)(=O)c1ccc(NC(=O)c2cccc3c(=O)c4ccccc4[nH]c23)cc1	> 100
COc1ccc(C2=NC(C)(C)CO2)cc1	> 100

system: HOP-62 NSCLC; assay: NCI anticancer screen, dose series, 48 h

SMILES	TGI [µM]
CC(C)(C)c1nc2c(o1)C(=Nc1ccc(F)cc1)c1ccccc1C2=O	32.4
c1ccc2c(c1)N=C(c1cccc3ccccc13)CC(c1cccc3ccccc13)S2 (centres undefined)	26.1
NS(=O)(=O)c1ccc(NC(=O)c2cccc3c(=O)c4ccccc4[nH]c23)cc1	> 100
COc1ccc(C2=NC(C)(C)CO2)cc1	> 100

system: SNB-78 CNS; assay: NCI anticancer screen, dose series, 48 h

SMILES	TGI [µM]
CCOC(=O)/C(=C/c1ccco1)P(=O)(OCC)OCC	> 100
CC(C)(C)c1nc2c(o1)C(=Nc1ccc(F)cc1)c1ccccc1C2=O	> 100
c1ccc2c(c1)N=C(c1cccc3ccccc13)CC(c1cccc3ccccc13)S2 (centres undefined)	33.4
NS(=O)(=O)c1ccc(NC(=O)c2cccc3c(=O)c4ccccc4[nH]c23)cc1	> 100
COc1ccc(C2=NC(C)(C)CO2)cc1	> 100

system: MCF7 breast; assay: NCI anticancer screen, dose series, 48 h

SMILES	TGI [µM]
CC(C)(C)c1nc2c(o1)C(=Nc1ccc(F)cc1)c1ccccc1C2=O	29.1

system: DMS 114 small cell lung; assay: NCI anticancer screen, dose series, 48 h

SMILES	TGI [µM]
CCOC(=O)/C(=C/c1ccco1)P(=O)(OCC)OCC	> 100
CC(C)(C)c1nc2c(o1)C(=Nc1ccc(F)cc1)c1ccccc1C2=O	7.81
c1ccc2c(c1)N=C(c1cccc3ccccc13)CC(c1cccc3ccccc13)S2 (centres undefined)	9.96
NS(=O)(=O)c1ccc(NC(=O)c2cccc3c(=O)c4ccccc4[nH]c23)cc1	> 100
COc1ccc(C2=NC(C)(C)CO2)cc1	> 100

system: OVCAR-4 ovarian; assay: NCI anticancer screen, dose series, 48 h

SMILES	TGI [µM]
CCOC(=O)/C(=C/c1ccco1)P(=O)(OCC)OCC	> 100
O=C(Nc1ccc(S(=O)(=O)N[C@@H](C(=O)O)c2ccccc2)cc1)c1ccc(F)cc1	> 100
CC(C)(C)c1nc2c(o1)C(=Nc1ccc(F)cc1)c1ccccc1C2=O	> 100
c1ccc2c(c1)N=C(c1cccc3ccccc13)CC(c1cccc3ccccc13)S2 (centres undefined)	12.4
NS(=O)(=O)c1ccc(NC(=O)c2cccc3c(=O)c4ccccc4[nH]c23)cc1	> 100
COc1ccc(C2=NC(C)(C)CO2)cc1	> 100

system: OVCAR-8 ovarian; assay: NCI anticancer screen, dose series, 48 h

SMILES	TGI [µM]
CCOC(=O)/C(=C/c1ccco1)P(=O)(OCC)OCC	> 100
O=C(Nc1ccc(S(=O)(=O)N[C@@H](C(=O)O)c2ccccc2)cc1)c1ccc(F)cc1	> 100
CC(C)(C)c1nc2c(o1)C(=Nc1ccc(F)cc1)c1ccccc1C2=O	> 61.2
c1ccc2c(c1)N=C(c1cccc3ccccc13)CC(c1cccc3ccccc13)S2 (centres undefined)	16.6

Source: PubChem BioAssay (NCI)
